The values below come from patent publication US9095136B2, “2-IODO imidazole-derivatives” (BAYER INTELLECTUAL PROPERTY GMBH, priority 2011, dated 2015).

One data set relates to Alternaria brassicae. The experiment in a line: Example O: preventative in vivo test with Alternaria brassicae (leaf spot on radish). As to conditions: 500 ppm, evaluation 5 days after inoculation. On the procedure:
The active compounds tested are prepared by homogenization in a mixture of acetone/Tween/DMSO and then diluted with water to the desired active compound concentration. Radish plants (cultivar “Pernod Clair”), sown in a 50/50 peat/pozzolana soil substrate and cultivated at 17° C., are treated at the 2-leaf stage by spraying with the active compound, prepared as above. As a control, plants are treated with the mixture of acetone/Tween/DMSO/water without the active compound. After 24 hours, the plants are inoculated by spraying the leaves with an aqueous suspension of Alternaria brassicae spores.

The subject of data set [1] is Sphaerotheca fuliginea. The experiment in a line: Example V: preventative in vivo test with Sphaerotheca fuliginea (powdery mildew on cucumber). As to conditions: 500 ppm, evaluation 12 days after inoculation. On the procedure:
The active compounds tested are prepared by homogenization in a mixture of acetone/Tween/DMSO and then diluted with water to the desired active compound concentration. Cucumber plants (cultivar “Vert petit de Paris”), sown in a 50/50 peat/pozzolana soil substrate and cultivated at 24° C., are treated at the Z11 cotyledon stage by spraying with the active compound, prepared as above. As a control, plants are treated with the mixture of acetone/Tween/DMSO/water without the active compound. After 24 hours, the plants are inoculated by spraying the leaves with an aqueous suspension of Sphaerotheca fuliginea spores. The inoculated cucumber plants are incubated at about 20° C./25° C. and a relative atmospheric humidity of 60/70%.

The test system of data set [2] is Septoria tritici. In words: Example U: preventative in vivo test with Septoria tritici (leaf blotch disease on wheat). As to conditions: 500 ppm, evaluation 21 to 28 days after inoculation. As to the method:
The active compounds tested are prepared by homogenization in a mixture of acetone/Tween/DMSO and then diluted with water to the desired active compound concentration. Wheat plants (cultivar “Scipion”), sown in a 50/50 peat/pozzolana soil substrate and cultivated at 22° C. (12 h)/20° C. (12 h), are treated at the 1-leaf stage (height 10 cm) by spraying with the active compound, prepared as above. As a control, plants are treated with the mixture of acetone/Tween/DMSO/water without the active compound. After 24 hours, the plants are inoculated by spraying the leaves with an aqueous suspension of cryogenically preserved Septoria tritici spores.

Data set [3] deals with Blumeria graminis f.sp. hordei. In words: Example G: Blumeria graminis test (barley)/protective. The class given is in vivo. As to conditions: protective, 500 ppm, evaluation 7 days after inoculation. On the procedure:
Solvent: 49 parts by weight of N,N-dimethylacetamide Emulsifier: 1 part by weight of alkylaryl polyglycol ether To produce a suitable preparation of active compound, 1 part by weight of active compound is mixed with the stated amounts of solvent and emulsifier, and the concentrate is diluted with water to the desired concentration. To test for protective activity, young plants are sprayed with the preparation of active compound at the stated application rate. After the spray coating has dried on, the plants are dusted with spores of Blumeria graminis f.sp. hordei.

The test system of data set [4] is Uromyces appendiculatus. The experiment in a line: Example W: preventative in vivo test with Uromyces appendiculatus (bean rust). As to conditions: 500 ppm, evaluation 10 days after inoculation. As to the method: The active compounds tested are prepared by homogenization in a mixture of acetone/Tween/DMSO and then diluted with water to the desired active compound concentration. Bean plants (cultivar “Saxa”), sown in a 50/50 peat/pozzolana soil substrate and cultivated at 24° C., are treated at the 2-leaf stage (height 9 cm) by spraying with the active compound, prepared as above. As a control, plants are treated with the mixture of acetone/Tween/DMSO/water without the active compound. After 24 hours, the plants are inoculated by spraying the leaves with an aqueous suspension of Uromyces appendiculatus spores.

The subject of another data set is Phakopsora pachyrhizi. In words: Example F: Phakopsora test (soya beans)/protective. Type of data set: in vivo. To be noted: protective, 100 ppm, evaluation 7 days after inoculation. On the procedure: (§1) Solvents: 24.5 parts by weight of acetone • 24.5 parts by weight of dimethylacetamide Emulsifier: 1 part by weight of alkylaryl polyglycol ether To produce a suitable preparation of active compound, 1 part by weight of active compound is mixed with the stated amounts of solvent and emulsifier, and the concentrate is diluted with water to the desired concentration. To test for protective activity, young plants are sprayed with the preparation of active compound at the stated application rate.

The next data set relates to Puccinia triticina. In words: Example L: Puccinia triticina test (wheat)/protective. The class given is in vivo. To be noted: protective, 500 ppm, evaluation 8 days after inoculation. As to the method: Solvent: 49 parts by weight of N,N-dimethylacetamide Emulsifier: 1 part by weight of alkylaryl polyglycol ether To produce a suitable preparation of active compound, 1 part by weight of active compound is mixed with the stated amounts of solvent and emulsifier, and the concentrate is diluted with water to the desired concentration. To test for protective activity, young plants are sprayed with the preparation of active compound at the stated application rate. After the spray coating has dried on, the plants are sprayed with spores with a spore suspension of Puccinia triticina.

The test system of the next data set is Puccinia recondita. The experiment in a line: Example T: preventative in vivo test with Puccinia recondita (brown rust on wheat). To be noted: 500 ppm, evaluation 10 days after inoculation. As to the method:
The active compounds tested are prepared by homogenization in a mixture of acetone/Tween/DMSO and then diluted with water to the desired active compound concentration. Wheat plants (cultivar “Scipion”), sown in a 50/50 peat/pozzolana soil substrate and cultivated at 22° C. (12 h)/20° C. (12 h), are treated at the 1-leaf stage (height 10 cm) by spraying with the active compound, prepared as above. As a control, plants are treated with the mixture of acetone/Tween/DMSO/water without the active compound. After 24 hours, the plants are inoculated by spraying the leaves with an aqueous suspension of Puccinia recondita spores.

Data set [5] can be described thus: log P by HPLC on reversed-phase columns (EEC directive 79/831 Annex V.A8). The class given is physicochemical. As to the method: The log P values were measured according to EEC directive 79/831 Annex V.A8 by HPLC (High Performance Liquid Chromatography) on reversed-phase columns, using the methods below: […] Calibration was carried out using unbranched alkan-2-ones (having from 3 to 16 carbon atoms) with known log P values (the log P values were determined by the retention times using linear interpolation between two successive alkanones). The lambda maX values were determined in the maxima of the chromatographic signals using the UV spectra from 200 nm to 400 nm.

A further data set has as its system Venturia inaequalis. In words: Example D: Venturia test (apple)/protective. Type of data set: in vivo. As to conditions: protective, 100 ppm, evaluation 10 days after inoculation. On the procedure:
as §1, with “Solvent:” for “Solvents:”, “rate. […] The plants are then placed in a greenhouse at about 21° C. and a relative atmospheric humidity of about 90%.” for “rate.”

Another data set deals with Botrytis cinerea. The experiment in a line: Example P: preventative in vivo test with Botrytis cinerea (grey mould). To be noted: cucumber, 500 ppm, evaluation 4-5 days after inoculation. On the procedure:
The active compounds tested are prepared by homogenization in a mixture of acetone/Tween/DMSO and then diluted with water to the desired active compound concentration. Cucumber plants (cultivar “Vert petit de Paris”), sown in a 50/50 peat/pozzolana soil substrate and cultivated at 24° C., are treated at the Z11 cotyledon stage by spraying with the active compound, prepared as above. As a control, plants are treated with the mixture of acetone/Tween/DMSO/water without the active compound. After 24 hours, the plants are inoculated by spraying the cotyledons with an aqueous suspension of cryogenically preserved Botrytis cinerea spores.

Data set [6] deals with Septoria tritici. In words: Example I: Septoria tritici test (wheat)/protective. Type of data set: in vivo. As to conditions: protective, 500 ppm, evaluation 21 days after inoculation. On the procedure:
Solvent: 49 parts by weight of N,N-dimethylacetamide Emulsifier: 1 part by weight of alkylaryl polyglycol ether To produce a suitable preparation of active compound, 1 part by weight of active compound is mixed with the stated amounts of solvent and emulsifier, and the concentrate is diluted with water to the desired concentration. To test for protective activity, young plants are sprayed with the preparation of active compound at the stated application rate. After the spray coating has dried on, the plants are sprayed with a spore suspension of Septoria tritici.

For data set [7], the system named is Sphaerotheca fuliginea. In words: Example B: Sphaerotheca test (cucumber)/protective. Type of data set: in vivo. To be noted: protective, 500 ppm, evaluation 7 days after inoculation. On the procedure: Solvent: 49 parts by weight of N,N-dimethylformamide Emulsifier: 1 part by weight of alkylaryl polyglycol ether To produce a suitable preparation of active compound, 1 part by weight of active compound is mixed with the stated amounts of solvent and emulsifier, and the concentrate is diluted with water to the desired concentration. To test for protective activity, young cucumber plants are sprayed with the preparation of active compound at the stated application rate. 1 day after the treatment, the plants are inoculated with a spore suspension of Sphaerotheca fuliginea. The plants are then placed in a greenhouse at 70% relative air humidity and a temperature of 23° C.

Another data set relates to Pyricularia oryzae. Type of data set: in vivo. As to conditions: rice, protective, 500 ppm, evaluation 7 days after inoculation.
In the next data set the test system is Leptosphaeria nodorum. In words: Example H: Leptosphaeria nodorum test (wheat)/protective. The class given is in vivo. As to conditions: protective, 500 ppm, evaluation 8 days after inoculation. As to the method: Solvent: 49 parts by weight of N,N-dimethylacetamide Emulsifier: 1 part by weight of alkylaryl polyglycol ether To produce a suitable preparation of active compound, 1 part by weight of active compound is mixed with the stated amounts of solvent and emulsifier, and the concentrate is diluted with water to the desired concentration. To test for protective activity, young plants are sprayed with the preparation of active compound at the stated application rate. After the spray coating has dried on, the plants are sprayed with a spore suspension of Leptosphaeria nodorum.

The subject of data set [8] is Uromyces appendiculatus. The experiment in a line: Example E: Uromyces test (bean)/protective. Type of data set: in vivo. As to conditions: protective, 10 ppm, evaluation 10 days after inoculation. As to the method:
as §1, with “rate. […] The plants are then placed in a greenhouse at about 21° C. and a relative atmospheric humidity of about 90%.” for “rate.”

In another data set the test system is Pyrenophora teres. The experiment in a line: Example K: Pyrenophora teres test (barley)/protective. Type of data set: in vivo. To be noted: protective, 500 ppm, evaluation 8 days after inoculation. As to the method: Solvent: 49 parts by weight of N,N-dimethylacetamide Emulsifier: 1 part by weight of alkylaryl polyglycol ether To produce a suitable preparation of active compound, 1 part by weight of active compound is mixed with the stated amounts of solvent and emulsifier, and the concentrate is diluted with water to the desired concentration. To test for protective activity, young plants are sprayed with the preparation of active compound at the stated application rate. After the spray coating has dried on, the plants are sprayed with a spore suspension of Pyrenophora teres.

Another data set has as its system Alternaria solani. The experiment in a line: Example A: Alternaria test (tomato)/protective. The class given is in vivo. As to conditions: protective, 500 ppm, evaluation 7 days after inoculation. As to the method:
Solvent: 49 parts by weight of N,N-dimethylformamide Emulsifier: 1 part by weight of alkylaryl polyglycol ether To produce a suitable preparation of active compound, 1 part by weight of active compound is mixed with the stated amounts of solvent and emulsifier, and the concentrate is diluted with water to the desired concentration. […] The plants then remain at 96% rel. atmospheric humidity and a temperature of 20° C.

The test system of the next data set is Fusarium graminearum. Type of data set: in vivo. As to conditions: barley (heading), protective, 500 ppm, evaluation 5 days after inoculation.
The subject of data set [9] is Fusarium nivale (var. majus). In words: Example M: Fusarium nivale (var. majus) test (wheat)/protective. The class given is in vivo. To be noted: protective, 500 ppm, evaluation 5 days after inoculation. As to the method: Solvent: 49 parts by weight of N,N-dimethylacetamide Emulsifier: 1 part by weight of alkylaryl polyglycol ether To produce a suitable preparation of active compound, 1 part by weight of active compound is mixed with the stated amounts of solvent and emulsifier, and the concentrate is diluted with water to the desired concentration. To test for protective activity, young plants are sprayed with the preparation of active compound at the stated application rate. After the spray coating has dried on, the plants are sprayed with a spore suspension of Fusarium nivale (var. majus).

Where “and” joins values, the source holds several entries; their conditions need not be identical. Equal entries are not always repeated. Marks after values point to notes of the source that are not given here.

In the data set on Alternaria brassicae, `Fc1ccc(C2(Cn3ccnc3I)OC2c2ccccc2Cl)cc1` (mixture of isomers) [Example 6] gave an Efficacy % of 75%.

For the molecule `Fc1ccc([C@]2(Cn3ccnc3I)O[C@H]2c2ccccc2Cl)c(F)c1` (relative stereo) [Example 14, rel-1-{[(2R,3S)-3-(2-chlorophenyl)-2-(2,4-difluorophenyl)oxiran-2-yl]methyl}-2-iodo-1H-imidazole], the Efficacy % in the data set on Sphaerotheca fuliginea [1] is reported as 100%; in the data set with Septoria tritici [2], 100%; in the data set on Uromyces appendiculatus [4], 100%; in the data set with Puccinia recondita it was 93%; in the data set on Botrytis cinerea it was 97%. Also, the Eff. % is 90% in [3]; 100% in the data set with Phakopsora pachyrhizi; 100% with Puccinia triticina; 100% in the data set with Venturia inaequalis; 100% in the data set on Septoria tritici [6]. For the same molecule, the chromatographic logP came out at 3.23 in data set [5] (pH 2.7, log P(HCOOH)) and 3.23 in data set [5] (pH 2.7, logP).

For `OC(Cc1ccccc1F)(Cn1ccnc1I)C1(Cl)CC1` (centres unmarked) [Example 2], the Eff. % with Sphaerotheca fuliginea [7] was 92%; in data set [3] it was 100%; in the data set with Pyricularia oryzae, 80%; with Leptosphaeria nodorum it was 93%; in the data set on Uromyces appendiculatus [8] it was 91% and 100%; with Puccinia triticina it was 100%. Moreover, the Eff. % was 100% with Pyrenophora teres; 95% in the data set on Alternaria solani; 92% and 100% in the data set with Fusarium graminearum; 86% in the data set on Septoria tritici [6]; 100% in [9]. Moreover, the values for the logP in data set [5] (pH 2.7) and in data set [5] (pH 7.8) were 2.05 and 3.02, respectively.

On to `Fc1cc(Cl)ccc1C1(Cn2ccnc2I)OC1c1ccccc1Cl` (centres unmarked) [Example 11], for which the Efficacy % is given as 100% in the data set on Sphaerotheca fuliginea [1]; 100% in the data set on Septoria tritici [2]; 97% with Uromyces appendiculatus [4]; 93% with Puccinia recondita; 92% in the data set with Botrytis cinerea. The log partition coefficient (logP) in [5] (pH 2.7) was 3.7^[a].

For orientation: chromatographic logP means a lipophilicity value derived from retention on a column. The low end stands for lower lipophilicity, the high end for higher lipophilicity. What is called logP is the decadic logarithm of the partition coefficient of the neutral form, usually between octanol and water. Read a low logP as lower lipophilicity.
